The results in this text go back to patent publication US12466822B2, “Heterocyclic compounds as immunomodulators” (Incyte Corporation, priority 2016, dated 2025).

Broadly, the IC50 is the concentration that gives 50% inhibition.

The structures appear in SMILES notation.

T1 sequence (Q9NZQ7 19-238): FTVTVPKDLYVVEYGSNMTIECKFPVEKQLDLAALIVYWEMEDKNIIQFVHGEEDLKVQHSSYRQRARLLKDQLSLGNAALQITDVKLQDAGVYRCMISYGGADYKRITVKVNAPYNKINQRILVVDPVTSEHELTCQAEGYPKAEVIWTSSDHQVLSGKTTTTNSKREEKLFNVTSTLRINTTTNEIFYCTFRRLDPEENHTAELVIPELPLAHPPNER

The assay concerns the target T1, PD-1/PD-L1 protein/protein interaction (recombinant human PD-L1 protein (19-238), recombinant human PD-1 protein (25-167)) (Homo sapiens, UniProt Q9NZQ7).
T1 construct: Recombinant human PD-L1 protein (19-238) with a His-tag at the C-terminus; purchased AcroBiosystems PD1-H5229 (PD-L1-His); PD1-H5257 (PD-1-Fc)
Nature of the assay: PD-1/PD-L1 Homogeneous Time-Resolved Fluorescence (HTRF) Binding Assay. The note with it: 25° C., PBS buffer (pH 7.4), 40 minutes preincubation with inhibitors. As to the method: The assays were conducted in a standard black 384-well polystyrene plate with a final volume of 20 μL. Inhibitors were first serially diluted in DMSO and then added to the plate wells before the addition of other reaction components. The final concentration of DMSO in the assay was 1%. The assays were carried out at 25° C. in the PBS buffer (pH 7.4) with 0.05% Tween-20 and 0.1% BSA. Recombinant human PD-L1 protein (19-238) with a His-tag at the C-terminus was purchased from AcroBiosystems (PD1-H5229). Recombinant human PD-1 protein (25-167) with Fc tag at the C-terminus was also purchased from AcroBiosystems (PD1-H5257). PD-L1 and PD-1 proteins were diluted in the assay buffer and 10 μL was added to the plate well. Plates were centrifuged and proteins were preincubated with inhibitors for 40 minutes. The incubation was followed by the addition of 10 μL of HTRF detection buffer supplemented with Europium cryptate-labeled anti-human IgG (PerkinElmer-AD0212) specific for Fc and anti-His antibody conjugated to SureLight®-Allophycocyanin (APC, PerkinElmer-AD0059H). After centrifugation, the plate was incubated at 25° C. for 60 min. before reading on a PHERAstar FS plate reader (665 nm/620 nm ratio). Final concentrations in the assay were […], 10 nM PD-L1, 1 nM europium anti-human IgG and 20 nM anti-His-Allophycocyanin. IC50 determination was performed by fitting the curve of percent control activity versus the log of the inhibitor concentration using the GraphPad Prism 5.0 software.
For the compound `Cc1c(Nc2nccc3cc(CN4CC[C@@H](O)C4)cnc23)cccc1-c1cccc(NC(=O)c2nc3c(n2C)CCN(CC[C@H]2CC[C@H](C(=O)O)CC2)C3)c1Cl` (single isomer, unassigned) [Example 52], the IC50 was at most 10 nM.

In the case of `Cc1c(Nc2nccc3cc(CN4CC[C@@H](O)C4)cnc23)cccc1-c1cccc(NC(=O)c2nc3c(n2C)CCN(CC[C@H]2CC[C@@H](C(=O)O)CC2)C3)c1Cl` (single isomer, unassigned) [Example 53], the IC50 was at most 10 nM.

Consider `Cc1c(NC(=O)c2nc3c(n2C)CCN(C2CCC(C)(C(=O)O)CC2)C3)cccc1-c1cccc(Nc2nccc3cc(CN4CC[C@@H](O)C4)cnc23)c1C` (single isomer, unassigned) [Example 62-peak1], for which the IC50 is at most 10 nM.

As for `Cc1c(NC(=O)c2nc3c(n2C)CCN(C2CCC(C)(C(=O)O)CC2)C3)cccc1-c1cccc(Nc2nccc3cc(CN4CC[C@@H](O)C4)cnc23)c1C` (single isomer, unassigned) [Example 62-peak2], the IC50 was at most 10 nM.

In the case of `Cc1c(NC(=O)c2nc3c(n2C)CCN(C2CCC(C(=O)O)CC2)C3)cccc1-c1cccc(Nc2nccc3cc(CN4CC[C@@H](O)C4)cnc23)c1C` (single isomer, unassigned) [Example 64-peak1], the IC50 was at most 10 nM.

As for `Cc1c(NC(=O)c2nc3c(n2C)CCN(C2CCC(C(=O)O)CC2)C3)cccc1-c1cccc(Nc2nccc3cc(CN4CC[C@@H](O)C4)cnc23)c1C` (single isomer, unassigned) [Example 64-peak2], the concentration for half-maximal inhibition (IC50) is at most 10 nM.

On to `Cc1c(Nc2ncnc3cc(CN4CC[C@@H](O)C4)cnc23)cccc1-c1cccc(NC(=O)c2nc3c(n2C)CCN(C2CCC(C)(C(=O)O)CC2)C3)c1Cl` (single isomer, unassigned) [Example 68-peak1], for which the IC50 is at most 10 nM.

In the case of `Cc1c(Nc2ncnc3cc(CN4CC[C@@H](O)C4)cnc23)cccc1-c1cccc(NC(=O)c2nc3c(n2C)CCN(C2CCC(C)(C(=O)O)CC2)C3)c1Cl` (single isomer, unassigned) [Example 68-peak2], the IC50 is at most 10 nM.

In the case of `Cc1c(-c2nc3c(s2)CNCC3)cccc1-c1cccc(Nc2nccc3cc(CNCCO)cnc23)c1Cl` [Example 1, 2-(((8-((2-chloro-2′-methyl-3′-(4,5,6,7-tetrahydrothiazolo[5,4-c]pyridin-2-yl)-[1,1′-biphenyl]-3-yl)amino)-1,7-naphthyridin-3-yl)methyl)amino)ethan-1-ol], the IC50 is at most 10 nM.

In the case of `Cc1c(Nc2nccc3cc(CNCCO)cnc23)cccc1-c1cccc(NC(=O)c2ccc(CNC3(C(=O)O)CCC3)cn2)c1F` [Example 2, 1-(((6-(2-fluoro-3′-(3-((2-hydroxyethylamino)methyl)-1,7-naphthyridin-8-ylamino)-2′-methylbiphenyl-3-ylcarbamoyl)pyridin-3-yl)methyl)amino)cyclobutanecarboxylic acid], the IC50 was at most 10 nM.

Regarding `Cc1c(Nc2nccc3cc(CNCCO)cnc23)cccc1-c1cccc(NC(=O)c2ccc(CN3CCCC[C@H]3C(=O)O)cn2)c1F` [Example 3, (S)-1-((6-((2-fluoro-3′-((3-(((2-hydroxyethyl)amino)methyl)-1,7-naphthyridin-8-yl)amino)-2′-methyl-[1,1′-biphenyl]-3-yl)carbamoyl)pyridin-3-yl)methyl)piperidine-2-carboxylic acid], the IC50 is at most 10 nM.

Regarding `Cc1c(Nc2nccc3cc(CNCCO)cnc23)cccc1-c1cccc(NC(=O)c2ccc(CNCCO)cn2)c1F` [Example 4, N-(2-fluoro-3′-((3-(((2-hydroxyethyl)amino)methyl)-1,7-naphthyridin-8-yl)amino)-2′-methyl-[1,1′-biphenyl]-3-yl)-5-(((2-hydroxyethyl)amino)methyl)picolinamide], the IC50 is at most 10 nM.

In the case of `Cc1c(Nc2nccc3cc(CNCCO)cnc23)cccc1-c1cccc(NC(=O)c2ccc(CNCCO)cn2)c1Cl` [Example 5, N-(2-chloro-3′-((3-(((2-hydroxyethyl)amino)methyl)-1,7-naphthyridin-8-yl)amino)-2′-methyl-[1,1′-biphenyl]-3-yl)-5-(((2-hydroxyethyl)amino)methyl)picolinamide], the IC50 is at most 10 nM.

On to `Cc1c(Nc2nccc3cc(CN4CC[C@@H](O)C4)cnc23)cccc1-c1cccc(NC(=O)c2ccc(CN3CC[C@@H](O)C3)cn2)c1Cl` [Example 6, N-(2-chloro-3′-((3-(((R)-3-hydroxypyrrolidin-1-yl)methyl)-1,7-naphthyridin-8-yl)amino)-2′-methyl-[1,1′-biphenyl]-3-yl)-5-(((R)-3-hydroxypyrrolidin-1-yl)methyl)picolinamide], for which the IC50 was at most 10 nM.

Consider `Cc1c(Nc2nccc3cc(CN4CC[C@@H](C(=O)O)C4)cnc23)cccc1-c1cccc(NC(=O)c2ccc(CN3CC[C@@H](O)C3)cn2)c1Cl` [Example 7, (R)-1-((8-((2′-chloro-3′-(5-(((R)-3-hydroxypyrrolidin-1-yl)methyl)picolinamido)-2-methyl-[1,1′-biphenyl]-3-yl)amino)-1,7-naphthyridin-3-yl)methyl)pyrrolidine-3-carboxylic acid], for which the IC50 is at most 10 nM.

On to `Cc1c(Nc2nccc3cc(CN4CC(C(=O)O)C4)cnc23)cccc1-c1cccc(NC(=O)c2ccc(CN3CC[C@@H](O)C3)cn2)c1Cl` [Example 8, (R)-1-((8-((2′-chloro-3′-(5-((3-hydroxypyrrolidin-1-yl)methyl)picolinamido)-2-methyl-[1,1′-biphenyl]-3-yl)amino)-1,7-naphthyridin-3-yl)methyl)azetidine-3-carboxylic acid], for which the IC50 is at most 10 nM.

As to `Cc1c(Nc2nccc3cc(CN4CC[C@@H](O)C4)cnc23)cccc1-c1cccc(Nc2nccc3cc(CN4CC[C@@H](C(=O)O)C4)cnc23)c1C` [Example 9, (R)-1-((8-((3′-((3-(((R)-3-hydroxypyrrolidin-1-yl)methyl)-1,7-naphthyridin-8-yl)amino)-2,2′-dimethyl-[1,1′-biphenyl]-3-yl)amino)-1,7-naphthyridin-3-yl)methyl)pyrrolidine-3-carboxylic acid], the half-inhibitory concentration (IC50) is at most 10 nM.

In the case of `Cc1c(Nc2nccc3cc(CN4CC[C@@H](O)C4)cnc23)cccc1-c1cccc(Nc2nccc3cc(CN4CC[C@H](C(=O)O)C4)cnc23)c1C` [Example 10, (S)-1-((8-((3′-((3-(((R)-3-hydroxypyrrolidin-1-yl)methyl)-1,7-naphthyridin-8-yl)amino)-2,2′-dimethyl-[1,1′-biphenyl]-3-yl)amino)-1,7-naphthyridin-3-yl)methyl)pyrrolidine-3-carboxylic acid], the IC50 is at most 10 nM.

In the case of `Cc1c(Nc2nccc3cc(CNCCO)cnc23)cccc1-c1cccc(Nc2nccc3cc(CN4CC[C@@H](C(=O)O)C4)cnc23)c1C` [Example 11, (R)-1-((8-((3′-((3-(((2-hydroxyethyl)amino)methyl)-1,7-naphthyridin-8-yl)amino)-2,2′-dimethyl-[1,1′-biphenyl]-3-yl)amino)-1,7-naphthyridin-3-yl)methyl)pyrrolidine-3-carboxylic acid], the IC50 was at most 10 nM.

As for `Cc1c(Nc2nccc3cc(CN4CC[C@H](O)C4)cnc23)cccc1-c1cccc(Nc2nccc3cc(CN4CC[C@@H](C(=O)O)C4)cnc23)c1C` [Example 12, (R)-1-((8-((3′-((3-(((S)-3-hydroxypyrrolidin-1-yl)methyl)-1,7-naphthyridin-8-yl)amino)-2,2′-dimethyl-[1,1′-biphenyl]-3-yl)amino)-1,7-naphthyridin-3-yl)methyl)pyrrolidine-3-carboxylic acid], the IC50 is at most 10 nM.

For the compound `Cc1c(Nc2nccc3cc(CN4CC[C@H](O)C4)cnc23)cccc1-c1cccc(Nc2nccc3cc(CN4CC[C@H](C(=O)O)C4)cnc23)c1C` [Example 13, (S)-1-((8-((3′-((3-(((S)-3-hydroxypyrrolidin-1-yl)methyl)-1,7-naphthyridin-8-yl)amino)-2,2′-dimethyl-[1,1′-biphenyl]-3-yl)amino)-1,7-naphthyridin-3-yl)methyl)pyrrolidine-3-carboxylic acid], the concentration for half-maximal inhibition (IC50) is at most 10 nM.

`Cc1c(NC(=O)c2nc3c(n2C)CCN(C)C3)cccc1-c1cccc(Nc2nccc3cc(CN4CC(C(=O)O)C4)cnc23)c1Cl` [Example 14, 1-((8-(2-chloro-3′-(1,5-dimethyl-4,5,6,7-tetrahydro-1H-imidazo[4,5-c]pyridine-2-carboxamido)-2′-methylbiphenyl-3-ylamino)-1,7-naphthyridin-3-yl)methyl)azetidine-3-carboxylic acid]: the IC50 was at most 10 nM.

On to `Cc1c(Nc2nccc3cc(CN4CC[C@@H](O)C4)cnc23)cccc1-c1cccc(NC(=O)c2cc(CN3CC[C@@H](C(=O)O)C3)cn(C)c2=O)c1Cl` [Example 15, (R)-1-((5-(2-chloro-3′-(3-(((R)-3-hydroxypyrrolidin-1-yl)methyl)-1,7-naphthyridin-8-ylamino)-2′-methylbiphenyl-3-ylcarbamoyl)-1-methyl-6-oxo-1,6-dihydropyridin-3-yl)methyl)pyrrolidine-3-carboxylicacid], for which the IC50 is at most 10 nM.
